According to patent US20030032183A1, “Stem cell differentiation” (priority 2001, published 2003):

Legend:
embryoid bodies = assay: Immunoperoxidase cytochemistry for insulin in suspended embryoid bodies; assay type: cell-based; conditions: retinoic acid days 3 to 7; suspension culture; day 32; versus control lacking primary antibody; FIG. 4
Protocol: Embryonic stem cell lines were cultured as described above for Examples 1-10 on gelatin coated Tissue Culture (TC) dishes without Mouse Embryonic Fibroblasts (MEF's) (with 1500 units/ml Lymphocyte Inhibitory Factor (LIF) in media) to remove MEF's from culture. The resulting stem cells were then differentiated as described above (with retinoic acid during treatment during days 3 to 7) except that the formed embryoid bodies were maintained in suspension for the duration of the experiment as opposed to being separated and adhered to TC dishes. All culturing from day 1 forward was performed in 25 millimolar (mM) glucose (high glucose) until after day 19, when it was changed to 5.5 millimolar glucose (physiological glucose).

embryonic stem cells = assay: RT-PCR analysis of insulin (INS) and amylase (AML) transcripts in embryonic stem cells differentiated with retinoic acid; assay type: cell-based; parameters: key to Abundance of Insulin RT-PCR Product (INS) / Abundance of Amylase RT-PCR Product (AML): +: Indicates relative abundance; −: No RT-PCR band observed
Protocol: Embryonic stem cell lines were cultured and spilt 1:8 every three days for 4 passages on gelatin coated Tissue Culture (TC) dishes without Mouse Embryonic Fibroblasts (MEF's) (with 1500 units/ml Lymphocyte Inhibitory Factor (LIF) in media) to remove MEF's from culture. The resulting stem cells were then differentiated as follows:
On day 1, the stem cells were treated with trypsin to break up some aggregation and then suspended in 1% Fetal Calf Serum (FCS) Media (without LIF). The stem cells were then allowed to self-aggregate into embryoid bodies in suspension culture in bacterial petri dishes. On day 3, the cells were given a fresh media change and then split among two bacterial petri dishes (sample and control). A solution containing 1 μM retinoic acid was intermixed with the sample and both the control (no retinoic acid) and the sample were allowed to sit at 37° C. Fresh media were supplied at day 5 (with fresh 1 μM retinoic acid for the treated sample). At day 7, fresh media was supplied for both, with no retinoic acid (retinoic acid only present from days 3 to 7).
Fresh media was supplied again on day 9. On […] the cells were again trypsinized and then placed into TC dishes with 10% FCS media (no LIF). Small aliquots were taken at various times (days 14, 17, 19, 22, and 25) from the cultures and were saved for later analysis by reverse transcriptase polymerase chain reaction (RT-PCR).
On day 14, the media was changed for the two groups of cells (10% FCS) in each population (control and sample). On day 17, the media was changed again.
On day 19, adherent cells were gently blown off by pipetting, then trypsinized and resuspended in 10% FCS in bacterial petri dish suspension cultures. On days 22 and 25, the remaining cells were collected and a portion retained for RT-PCR analysis.
All culturing from day 1 forward was performed in 25 millimolar (mM) glucose (high glucose) until after day 19, when it was changed to 5.5 millimolar glucose (lower glucose) The glucose concentrations ranged from 30 mM to 10 mM on the high end and 0.5 mM-5 mM on the low end.
Total RNA from each aliquot collected above was purified as instructed with a Qiagen RNeasy® Mini purification kit (obtained commercially from Qiagen Inc.). The presence of specific RNA transcripts (i.e. insulin) was determined by RT-PCR using gene specific oligonucleotide primers as instructed with a Qiagen® OneStep RT-PCR kit (obtained commercially from Qiagen Inc.). Total RNA was prepared from cultures of differentiating ES cells. RT-PCR analyses were performed with appropriate oligonucleotide primers (INS-insulin) or the pancreatic specific product amylase (AML).

[1] = Ex. 10, lane 5, 1 μM retinoic acid days 3 to 7, day 25, glucose 5.5 mM

SMILES: CC1=C(/C=C/C(C)=C/C=C/C(C)=C/C(=O)O)C(C)(C)CCC1 [retinoic acid]
- Insulin protein in embryoid bodies by specific antibody staining (embryoid bodies): produce insulin
- Abundance of Insulin RT-PCR Product (INS) (embryonic stem cells; Ex. 9, lane 4, 1 μM retinoic acid days 3 to 7, day 22, glucose 5.5 mM): +
- Abundance of Amylase RT-PCR Product (AML) (embryonic stem cells; [1]): −
- Abundance of Insulin RT-PCR Product (INS) (embryonic stem cells; [1]): −
- Formation of insulin-producing cells (correctly sized insulin-specific RT-PCR band) (embryonic stem cells; stem cells treated with retinoic acid, aliquots at days 14, 17, 19 and 22, FIG. 1): insulin-producing cells resulted
